Reference: patent publication US7396837B2, “Antitumoral analogs of lamellarins” (Pharma Mar, S.A.U., priority 2002, dated 2008)
Read-outs that look alike come from different tables or passages of the source.

What was measured:
Type in all cases: cell-based
[1] = system: IGROV; experiment: SRB colorimetric cell growth inhibition assay, IGROV; details: Homo sapiens, IGROV; for GI50: GI=growth inhibition, read-out: GI50 IGROV; for CC50: read-out: LC50 IGROV; for IC (TGI): read-out: TGI IGROV
Outline: (§1)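 Continuous drug exposure of human cancer cells; SRB protein stain read-out; triplicate wells, mean ± SD; GI, TGI, LC computed.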

[2] = system: HT-29; experiment: SRB colorimetric cell growth inhibition assay, HT-29; details: Homo sapiens, HT-29, HT-29; for GI50: GI=growth inhibition, read-out: GI50 HT-29; for CC50: cell killing (cytotoxic effect), read-out: LC50 HT-29; for IC (TGI): total growth inhibition (cytostatic effect), read-out: TGI HT-29
Outline: as §1

[3] = system: PANC-1; experiment: SRB colorimetric cell growth inhibition assay, PANC-1; details: Homo sapiens, PANC-1, PANC-1; for GI50: GI=growth inhibition, read-out: GI50 PANC-1; for CC50: cell killing (cytotoxic effect), read-out: LC50 PANC-1; for IC (TGI): total growth inhibition (cytostatic effect), read-out: TGI PANC-1
Outline: as §1

[4] = SRB colorimetric cell growth inhibition assay, H-MEC-1; details: human, H-MEC-1, cell killing (cytotoxic effect), read-out: LC50 H-MEC-1
Text: (§2) A colorimetric type of assay, using sulforhodamine B (SRB) reaction has been adapted for a quantitative measurement of cell growth and viability (following the technique described by P. A. Skehan, et al., J. Natl. Cancer Inst. 1990, 82, 1107-1112).
(§3) This form of assay employs 96 well cell culture microplates of 9 mm diameter (T. Mosmann et al., J. of Immunological Methods 1983, 65, 55-63; G. T. Faircloth et al., J. of Tissue and Culture Methods 1988, 11, 201-205).
(§4) Most of the cell lines are obtained from American Type Culture Collection (ATCC) derived from different human cancer types.
(§5) The values for mean +/− SD of data from triplicate wells are calculated. Some parameters for cellular responses can be calculated: GI=growth inhibition, TGI=total growth inhibition (cytostatic effect) and LC=cell killing (cytotoxic effect).

[5] = system: H-MEC-1; experiment: as above; details: Homo sapiens, HMEC-1, H-MEC-1
Text: as §2, §3, §4, §5

[6] = system: A-549; experiment: SRB colorimetric cell growth inhibition assay, A-549; details: Homo sapiens, A549, A-549; for GI50: GI=growth inhibition, read-out: GI50 A-549; for CC50: cell killing (cytotoxic effect), read-out: LC50 A-549; for IC (TGI): total growth inhibition (cytostatic effect), read-out: TGI A-549
Outline: as §1

[7] = system: DU-145; experiment: SRB colorimetric cell growth inhibition assay, DU-145; details: Homo sapiens, DU-145, DU-145; for GI50: GI=growth inhibition, read-out: GI50 DU-145; for CC50: read-out: LC50 DU-145; for IC (TGI): read-out: TGI DU-145
Outline: as §1

[8] = system: K-562; experiment: SRB colorimetric cell growth inhibition assay, K-562; details: Homo sapiens, K562, K-562; for GI50: GI=growth inhibition, read-out: GI50 K-562; for CC50: cell killing (cytotoxic effect), read-out: LC50 K-562; for IC (TGI): total growth inhibition (cytostatic effect), read-out: TGI K-562
Outline: as §1

[9] = system: LoVo; experiment: SRB colorimetric cell growth inhibition assay, LoVo; details: Homo sapiens, LoVo; for GI50: GI=growth inhibition, read-out: GI50 LOVO; for CC50: cell killing (cytotoxic effect), read-out: LC50 LOVO; for IC (TGI): total growth inhibition (cytostatic effect), read-out: TGI LOVO
Outline: as §1

[10] = system: LoVo-Dox; experiment: SRB colorimetric cell growth inhibition assay, LoVo-Dox (MDR); details: Homo sapiens, LOVO-DOX; for GI50: GI=growth inhibition, read-out: GI50 LOVO-DOX; for CC50: cell killing (cytotoxic effect), read-out: LC50 LOVO-DOX; for IC (TGI): total growth inhibition (cytostatic effect), read-out: TGI LOVO-DOX
Outline: as §1

[11] = system: IGROV-ET; experiment: SRB colorimetric cell growth inhibition assay, IGROV-ET (ET-743 resistant); details: Homo sapiens, IGROV-ET; for GI50: GI=growth inhibition, read-out: GI50 IGROV-ET; for CC50: read-out: LC50 IGROV-ET; for IC (TGI): read-out: TGI IGROV-ET
Outline: as §1

[12] = system: SK-BR-3; experiment: SRB colorimetric cell growth inhibition assay, SK-BR-3; details: Homo sapiens, SK-BR-3, SK-BR-3; for GI50: GI=growth inhibition, read-out: GI50 SK-BR-3; for CC50: read-out: LC50 SK-BR-3; for IC (TGI): read-out: TGI SK-BR-3
Outline: as §1

[13] = system: SKOV-3; experiment: SRB colorimetric cell growth inhibition assay, SKOV-3; details: Homo sapiens
Text: as §2, §3, §4, §5

[14] = system: LNCaP; experiment: SRB colorimetric cell growth inhibition assay, LNCaP; details: Homo sapiens, LNCaP, LN-caP; for GI50: GI=growth inhibition, read-out: GI50 LN-caP; for CC50: read-out: LC50 LN-caP; for IC (TGI): read-out: TGI LN-caP
Outline: as §1

[15] = system: SK-MEL-28; experiment: SRB colorimetric cell growth inhibition assay, SK-MEL-28; details: Homo sapiens, SK-MEL-28, MEL-28; for GI50: GI=growth inhibition, read-out: GI50 MEL-28; for CC50: read-out: LC50 MEL-28; for IC (TGI): read-out: TGI MEL-28
Outline: as §1

[16] = SRB colorimetric cell growth inhibition assay, H-MEC-1; details: human, H-MEC-1 cells, H-MEC-1; LC=cell killing (cytotoxic effect); read-out: LC50 H-MEC-1
Outline: (§6)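 Growth and viability quantified by sulforhodamine B staining in 96-well microplates. Triplicate wells give mean ± SD; derived endpoints are GI, TGI (cytostatic) and LC (cytotoxic).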

[17] = system: H-MEC-1; experiment: as above; details: Homo sapiens, HMEC-1, H-MEC-1; remark: listed apart in the source
Outline: as §6

[18] = system: SKOV-3; experiment: SRB colorimetric cell growth inhibition assay, SKOV-3; details: Homo sapiens; remark: listed apart in the source
Outline: as §6

[19] = cell killing (cytotoxic effect)
[20] = total growth inhibition (cytostatic effect)
[21] = SK-OV-3, SKOV-3, GI=growth inhibition, read-out: GI50 SKOV-3
[22] = LC=cell killing (cytotoxic effect)
[23] = TGI=total growth inhibition (cytostatic effect)

COc1cc2c(cc1OC)-c1c(-c3ccc(OC(=O)[C@H](C)NC(=O)OC(C)(C)C)c(OC)c3)c3c4cc(OC)c(OC(=O)[C@H](C)NC(=O)OC(C)(C)C)cc4oc(=O)c3n1CC2 [Compound 21]
GI50 [1]: 0.315 µM | CC50 [1, 19]: 9.02 µM | IC (TGI) [1, 20]: 0.664 µM | GI50 [2]: 0.512 µM | CC50 [2]: 11.7 µM | IC (TGI) [2]: 11.7 µM | GI50 [3]: 0.514 µM | CC50 [3]: 11.7 µM | IC (TGI) [3]: 1.81 µM | LC50 (concentration giving 50% net cell killing) ([4]; H-MEC-1 cells): 0.922 µM | GI50 ([5]; GI=growth inhibition, read-out: GI50 H-MEC-1): 0.281 µM | IC (TGI) ([5]; total growth inhibition (cytostatic effect), read-out: TGI H-MEC-1): 0.509 µM | GI50 [6]: 1.39 µM | CC50 [6]: 11.7 µM | IC (TGI) [6]: 4.62 µM | GI50 [7]: 0.353 µM | CC50 [7, 19]: 11.7 µM | IC (TGI) [7, 20]: 0.703 µM | GI50 [8]: 0.286 µM | CC50 [8]: 2.39 µM | IC (TGI) [8]: 0.582 µM | GI50 [9]: 1.95 µM | CC50 [9]: 11.7 µM | IC (TGI) [9]: 4.97 µM | GI50 [10]: 4.97 µM | CC50 [10]: 11.7 µM | IC (TGI) [10]: 11.7 µM | GI50 [11]: 0.901 µM | CC50 [11, 19]: 11.7 µM | IC (TGI) [11, 20]: 5.18 µM | GI50 [12]: 0.342 µM | CC50 [12, 19]: 11.7 µM | IC (TGI) [12, 20]: 0.599 µM | GI50 [13, 21]: 0.849 µM | LC50 (concentration causing 50% net cell killing) ([13]; SK-OV-3, SKOV-3, cell killing (cytotoxic effect), read-out: LC50 SKOV-3): 11.7 µM | IC (TGI) ([13]; SK-OV-3, SKOV-3, total growth inhibition (cytostatic effect), read-out: TGI SKOV-3): 11.7 µM | GI50 [14]: 0.19 µM | CC50 [14, 19]: 0.775 µM | IC (TGI) [14, 20]: 0.383 µM | GI50 [15]: 0.287 µM | CC50 [15, 19]: 0.86 µM | IC (TGI) [15, 20]: 0.497 µM

COc1cc(-c2c3n(c4c(=O)oc5cc(OC(=O)[C@@H](N)C[S][Fm])c(OC)cc5c24)CCc2c-3cc(OC)c(OC)c2OC(=O)[C@@H](N)C[S][Fm])ccc1OC(=O)[C@@H](N)C[S][Fm] [Compound 23]
LC50 (concentration giving 50% net cell killing) [4]: 2.87 µM

COc1cc(-c2c3n(c4c(=O)oc5cc(OC(=O)[C@@H](N)Cc6ccccc6)c(OC)cc5c24)CCc2cc(OC(=O)[C@@H](N)Cc4ccccc4)c(OC)cc2-3)ccc1OC(=O)[C@@H](N)Cc1ccccc1 [Compound 115]
GI50 [1]: 1.07 µM | CC50 [1, 22]: 6.26 µM | IC (TGI) [1, 23]: 2.58 µM | GI50 [2]: 2.92 µM | CC50 [2]: 7.78 µM | IC (TGI) [2]: 6.46 µM | GI50 [3]: 2.47 µM | CC50 [3]: 7.78 µM | IC (TGI) [3]: 7.78 µM | CC50 [16]: 2.96 µM | GI50 ([17]; GI=growth inhibition): 0.213 µM | IC (TGI) ([17]; TGI=total growth inhibition (cytostatic effect), read-out: TGI H-MEC-1): 0.452 µM | GI50 [6]: 1.65 µM | CC50 [6]: 5.87 µM | IC (TGI) [6]: 3.11 µM | GI50 [7]: 1.63 µM | CC50 [7, 22]: 7.78 µM | IC (TGI) [7, 23]: 4.29 µM | GI50 [8]: 0.536 µM | CC50 [8]: 7.78 µM | IC (TGI) [8]: 2.47 µM | GI50 [9]: 0.703 µM | CC50 [9]: 4.41 µM | IC (TGI) [9]: 1.82 µM | GI50 [10]: 1.76 µM | CC50 [10]: 7.78 µM | IC (TGI) [10]: 4.78 µM | GI50 [11]: 1.7 µM | CC50 [11, 22]: 7.78 µM | IC (TGI) [11, 23]: 5.38 µM | GI50 [12]: 1.87 µM | CC50 [12, 22]: 7.53 µM | IC (TGI) [12, 23]: 3.75 µM | GI50 [14]: 0.67 µM | CC50 [14, 22]: 3.87 µM | IC (TGI) [14, 23]: 1.67 µM | GI50 [18, 21]: 1.1 µM | CC50 ([18]; SK-OV-3, SKOV-3, LC=cell killing (cytotoxic effect), read-out: LC50 SKOV-3): 5.13 µM | IC (TGI) ([18]; SK-OV-3, SKOV-3, TGI=total growth inhibition (cytostatic effect), read-out: TGI SKOV-3): 2.38 µM | GI50 [15]: 1.45 µM | CC50 [15, 22]: 4.83 µM | IC (TGI) [15, 23]: 2.65 µM
